Like-named read-outs stand apart in the source and are kept apart here.
Legend:
Experiment in all cases: KINOMEscan competitive binding
PDGFRα = target: T1, PDGFRα (Homo sapiens, UniProt P16234)
T1 construct: purchased DiscoverX (KINOMEscan)
Procedure, shortened: (§1)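 Percentage inhibition reflects loss of kinase binding to solid-phase ATP-site probe ligands in the presence of compound. Kinases carry a T7 bacteriophage fusion.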

Aurora kinase A = target: T2, Aurora kinase A (Homo sapiens, UniProt O14965)
T2 construct: purchased DiscoverX (KINOMEscan)
T2 sequence (O14965 1-403): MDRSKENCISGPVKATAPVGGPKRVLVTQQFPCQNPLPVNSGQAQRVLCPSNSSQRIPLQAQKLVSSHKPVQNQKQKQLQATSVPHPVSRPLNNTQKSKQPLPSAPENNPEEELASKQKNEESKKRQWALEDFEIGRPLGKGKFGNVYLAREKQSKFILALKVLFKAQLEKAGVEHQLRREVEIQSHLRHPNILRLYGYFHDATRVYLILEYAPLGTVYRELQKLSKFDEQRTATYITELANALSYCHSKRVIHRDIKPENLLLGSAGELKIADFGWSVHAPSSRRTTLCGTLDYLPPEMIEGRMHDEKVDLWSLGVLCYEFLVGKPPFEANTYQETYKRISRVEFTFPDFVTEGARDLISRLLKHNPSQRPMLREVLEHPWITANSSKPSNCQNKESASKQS
Procedure, shortened: as §1

FLT1 = target: T3, FLT1 (Homo sapiens, UniProt P17948); settings: for inhibition at 10 µM: n=1, kinase FLT1, read-out: Percent inhibition FLT1
T3 construct: purchased DiscoverX (KINOMEscan)
T3 sequence (P17948 27-1338): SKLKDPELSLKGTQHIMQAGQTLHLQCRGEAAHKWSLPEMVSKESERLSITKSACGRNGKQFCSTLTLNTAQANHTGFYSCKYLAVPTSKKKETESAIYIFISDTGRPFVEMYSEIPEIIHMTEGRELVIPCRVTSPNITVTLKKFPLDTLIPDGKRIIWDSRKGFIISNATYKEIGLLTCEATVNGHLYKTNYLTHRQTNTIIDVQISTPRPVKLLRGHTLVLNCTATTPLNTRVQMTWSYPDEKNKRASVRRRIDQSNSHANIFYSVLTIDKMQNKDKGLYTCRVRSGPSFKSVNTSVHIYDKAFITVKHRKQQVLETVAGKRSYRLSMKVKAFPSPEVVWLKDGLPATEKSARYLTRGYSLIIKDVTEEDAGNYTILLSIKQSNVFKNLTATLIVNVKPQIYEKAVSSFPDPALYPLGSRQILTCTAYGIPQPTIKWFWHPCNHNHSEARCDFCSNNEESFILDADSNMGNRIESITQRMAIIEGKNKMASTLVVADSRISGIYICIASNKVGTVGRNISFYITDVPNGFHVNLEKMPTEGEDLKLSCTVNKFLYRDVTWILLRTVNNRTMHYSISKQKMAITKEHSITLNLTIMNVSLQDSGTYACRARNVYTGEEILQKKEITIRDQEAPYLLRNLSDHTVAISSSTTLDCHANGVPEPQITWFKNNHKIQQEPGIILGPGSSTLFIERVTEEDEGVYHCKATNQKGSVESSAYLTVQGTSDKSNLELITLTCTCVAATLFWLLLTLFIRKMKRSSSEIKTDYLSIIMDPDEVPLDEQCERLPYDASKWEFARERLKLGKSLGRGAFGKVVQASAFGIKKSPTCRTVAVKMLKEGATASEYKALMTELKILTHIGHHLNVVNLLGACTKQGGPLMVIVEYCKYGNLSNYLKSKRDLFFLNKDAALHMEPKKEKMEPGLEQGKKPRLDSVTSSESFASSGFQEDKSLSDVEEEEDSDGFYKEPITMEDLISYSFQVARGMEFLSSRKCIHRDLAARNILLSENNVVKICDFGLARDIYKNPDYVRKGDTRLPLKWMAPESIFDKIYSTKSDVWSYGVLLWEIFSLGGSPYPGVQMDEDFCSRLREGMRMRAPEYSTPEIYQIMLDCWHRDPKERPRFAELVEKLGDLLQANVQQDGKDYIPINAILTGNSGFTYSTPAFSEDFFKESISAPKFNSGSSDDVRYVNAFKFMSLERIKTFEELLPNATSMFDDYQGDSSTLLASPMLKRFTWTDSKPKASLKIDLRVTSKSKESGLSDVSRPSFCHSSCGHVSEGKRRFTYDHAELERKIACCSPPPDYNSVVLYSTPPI
Procedure, shortened: as §1

FLT3 = target: T4, FLT3 (Homo sapiens, UniProt P36888)
T4 construct: purchased DiscoverX (KINOMEscan)
T4 sequence (P36888 27-993): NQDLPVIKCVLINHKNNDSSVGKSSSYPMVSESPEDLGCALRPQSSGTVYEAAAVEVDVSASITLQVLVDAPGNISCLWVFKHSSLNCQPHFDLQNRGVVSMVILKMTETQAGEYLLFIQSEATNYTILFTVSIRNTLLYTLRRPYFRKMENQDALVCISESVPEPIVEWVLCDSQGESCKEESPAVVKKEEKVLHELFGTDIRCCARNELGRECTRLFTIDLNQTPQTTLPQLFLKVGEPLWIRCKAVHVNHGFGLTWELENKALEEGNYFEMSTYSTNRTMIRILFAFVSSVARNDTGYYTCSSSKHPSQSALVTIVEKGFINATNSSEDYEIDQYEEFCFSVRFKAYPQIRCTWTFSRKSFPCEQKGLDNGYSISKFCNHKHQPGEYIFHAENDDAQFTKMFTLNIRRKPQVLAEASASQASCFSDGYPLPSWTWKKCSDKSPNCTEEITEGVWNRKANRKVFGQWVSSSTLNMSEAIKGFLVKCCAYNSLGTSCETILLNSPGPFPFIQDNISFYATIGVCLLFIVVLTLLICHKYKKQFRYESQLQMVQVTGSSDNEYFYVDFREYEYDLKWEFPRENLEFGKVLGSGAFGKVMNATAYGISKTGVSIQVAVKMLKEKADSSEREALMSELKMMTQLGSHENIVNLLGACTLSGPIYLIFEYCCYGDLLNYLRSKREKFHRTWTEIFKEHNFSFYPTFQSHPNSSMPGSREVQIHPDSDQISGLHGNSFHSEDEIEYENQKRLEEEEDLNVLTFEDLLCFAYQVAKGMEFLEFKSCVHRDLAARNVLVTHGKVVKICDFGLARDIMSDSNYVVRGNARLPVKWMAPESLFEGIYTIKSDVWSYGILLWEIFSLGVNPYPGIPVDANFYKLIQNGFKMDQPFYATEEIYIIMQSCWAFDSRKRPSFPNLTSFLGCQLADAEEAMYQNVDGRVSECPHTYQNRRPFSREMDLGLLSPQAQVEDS
Procedure, shortened: as §1

PDGFRβ = target: T5, PDGFRβ (Homo sapiens, UniProt P09619)
T5 construct: purchased DiscoverX (KINOMEscan)
T5 sequence (P09619 33-1106): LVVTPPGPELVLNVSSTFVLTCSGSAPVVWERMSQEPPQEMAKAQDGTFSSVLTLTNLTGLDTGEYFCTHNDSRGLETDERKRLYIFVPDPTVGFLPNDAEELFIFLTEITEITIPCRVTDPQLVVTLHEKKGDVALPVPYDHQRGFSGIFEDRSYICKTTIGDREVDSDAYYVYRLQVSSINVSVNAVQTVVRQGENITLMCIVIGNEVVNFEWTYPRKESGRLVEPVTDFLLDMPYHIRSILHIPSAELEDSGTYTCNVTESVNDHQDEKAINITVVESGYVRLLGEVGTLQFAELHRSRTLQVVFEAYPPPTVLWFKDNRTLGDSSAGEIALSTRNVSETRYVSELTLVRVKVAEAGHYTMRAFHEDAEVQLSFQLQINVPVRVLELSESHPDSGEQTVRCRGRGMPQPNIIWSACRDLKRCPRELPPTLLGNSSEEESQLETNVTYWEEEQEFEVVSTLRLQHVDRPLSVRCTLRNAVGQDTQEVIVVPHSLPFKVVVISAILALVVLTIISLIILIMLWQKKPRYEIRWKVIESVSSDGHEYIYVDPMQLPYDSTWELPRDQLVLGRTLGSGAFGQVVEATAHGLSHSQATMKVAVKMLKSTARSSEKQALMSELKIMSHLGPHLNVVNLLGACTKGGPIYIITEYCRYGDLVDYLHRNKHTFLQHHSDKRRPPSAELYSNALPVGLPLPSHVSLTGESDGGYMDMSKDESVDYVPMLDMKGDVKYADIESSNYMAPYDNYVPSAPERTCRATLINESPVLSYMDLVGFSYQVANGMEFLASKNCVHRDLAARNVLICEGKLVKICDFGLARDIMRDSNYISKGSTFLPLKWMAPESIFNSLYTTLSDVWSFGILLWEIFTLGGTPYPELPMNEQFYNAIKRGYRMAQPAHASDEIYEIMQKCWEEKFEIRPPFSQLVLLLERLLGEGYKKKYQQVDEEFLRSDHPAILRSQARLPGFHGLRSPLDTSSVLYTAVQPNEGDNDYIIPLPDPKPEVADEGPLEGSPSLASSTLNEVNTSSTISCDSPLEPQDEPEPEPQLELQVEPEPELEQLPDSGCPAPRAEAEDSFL
Procedure, shortened: as §1

TNK1 = target: T6, TNK1 (Homo sapiens, UniProt Q13470); settings: n=1, read-out: Percent inhibition, TNK1
T6 construct: purchased DiscoverX (KINOMEscan)
T6 sequence (Q13470 1-666): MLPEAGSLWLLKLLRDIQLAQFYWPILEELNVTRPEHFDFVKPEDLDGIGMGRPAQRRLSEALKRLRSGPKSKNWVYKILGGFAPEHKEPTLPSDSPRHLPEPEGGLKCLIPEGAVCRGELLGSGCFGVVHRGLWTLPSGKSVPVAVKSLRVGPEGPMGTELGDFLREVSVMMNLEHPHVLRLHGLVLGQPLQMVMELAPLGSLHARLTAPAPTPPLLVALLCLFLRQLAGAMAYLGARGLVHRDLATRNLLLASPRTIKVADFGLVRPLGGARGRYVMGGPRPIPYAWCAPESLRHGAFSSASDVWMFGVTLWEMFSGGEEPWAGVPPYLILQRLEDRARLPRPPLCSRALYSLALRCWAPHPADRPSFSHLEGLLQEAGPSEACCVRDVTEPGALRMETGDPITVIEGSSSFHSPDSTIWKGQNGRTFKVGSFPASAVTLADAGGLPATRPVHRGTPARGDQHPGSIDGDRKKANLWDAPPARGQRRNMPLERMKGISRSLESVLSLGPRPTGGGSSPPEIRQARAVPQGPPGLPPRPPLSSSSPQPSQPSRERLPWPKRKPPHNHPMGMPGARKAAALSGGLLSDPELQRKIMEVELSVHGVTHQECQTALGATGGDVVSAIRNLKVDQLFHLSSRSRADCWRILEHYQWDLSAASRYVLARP

PKAC-alpha = target: T7, PKAC-alpha (Homo sapiens, UniProt P17612); settings: n=1, read-out: Percent inhibition, PKAC-alpha
T7 construct: purchased DiscoverX (KINOMEscan)

[1] = KINOMEscan, 10 µM, n=1, read-out: Percent inhibition, PDGFRA
[2] = 10 µM, n=1, kinase AURKA, read-out: Percent inhibition AURKA
[3] = 10 µM, n=1, kinase FLT3, read-out: Percent inhibition FLT3
[4] = KINOMEscan, 10 µM, n=1, read-out: Percent inhibition, PDGFRB
[5] = 10 μM, n = 1, read-out: percent inhibition Aurora kinase A
[6] = 10 μM, n = 1, read-out: percent inhibition PDGFRα
[7] = 10 μM, n = 1, read-out: percent inhibition FLT3

T1 sequence (P16234 24-1089): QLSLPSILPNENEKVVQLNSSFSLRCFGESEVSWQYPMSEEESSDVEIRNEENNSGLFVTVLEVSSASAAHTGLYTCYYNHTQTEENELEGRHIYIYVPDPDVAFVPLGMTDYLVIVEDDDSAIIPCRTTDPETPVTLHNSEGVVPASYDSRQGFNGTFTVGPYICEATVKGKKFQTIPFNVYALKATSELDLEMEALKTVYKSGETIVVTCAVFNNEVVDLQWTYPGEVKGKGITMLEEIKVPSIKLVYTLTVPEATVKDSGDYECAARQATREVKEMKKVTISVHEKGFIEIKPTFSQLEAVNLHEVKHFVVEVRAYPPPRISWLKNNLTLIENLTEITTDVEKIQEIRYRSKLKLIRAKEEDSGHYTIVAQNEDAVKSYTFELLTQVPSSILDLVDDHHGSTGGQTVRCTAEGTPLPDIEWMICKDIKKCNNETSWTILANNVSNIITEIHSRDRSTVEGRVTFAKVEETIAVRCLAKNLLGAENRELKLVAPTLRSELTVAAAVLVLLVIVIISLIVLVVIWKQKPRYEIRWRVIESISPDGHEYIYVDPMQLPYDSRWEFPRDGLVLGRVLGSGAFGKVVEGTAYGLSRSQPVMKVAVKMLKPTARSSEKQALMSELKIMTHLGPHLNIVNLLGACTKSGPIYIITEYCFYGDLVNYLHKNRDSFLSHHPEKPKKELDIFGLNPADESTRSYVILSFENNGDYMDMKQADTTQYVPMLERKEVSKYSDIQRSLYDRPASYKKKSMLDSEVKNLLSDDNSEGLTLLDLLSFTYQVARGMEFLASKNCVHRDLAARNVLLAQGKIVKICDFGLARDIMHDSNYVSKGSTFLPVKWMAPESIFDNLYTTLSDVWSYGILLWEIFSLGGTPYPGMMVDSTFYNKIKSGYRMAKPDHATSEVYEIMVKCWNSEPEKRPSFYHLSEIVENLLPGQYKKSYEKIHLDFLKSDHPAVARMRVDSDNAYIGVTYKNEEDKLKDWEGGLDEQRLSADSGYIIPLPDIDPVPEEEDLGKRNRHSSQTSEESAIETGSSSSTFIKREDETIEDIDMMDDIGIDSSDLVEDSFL

Cc1ccc(O)cc1Nc1ccnc(Nc2cccc(C(N)=O)c2)n1 [Compound 3]
inhibition at 10 µM (PDGFRα; [1]): 99.2%
inhibition at 10 µM (Aurora kinase A; [2]): 91.3%
inhibition at 10 µM (FLT1): 98.3%
inhibition at 10 µM (FLT3; [3]): 89%
inhibition at 10 µM (PDGFRβ; [4]): 100%
inhibition at 10 µM (TNK1): 80.1%
inhibition at 10 µM (PKAC-alpha): 0%

Cc1ccc(O)cc1N(C)c1ccnc(Nc2cccc(S(N)(=O)=O)c2)n1 [Compound 4]
inhibition at 10 µM (PDGFRα; [1]): 100%
inhibition at 10 µM (Aurora kinase A; [2]): 79.6%
inhibition at 10 µM (FLT1): 99.4%
inhibition at 10 µM (FLT3; [3]): 92.3%
inhibition at 10 µM (PDGFRβ; [4]): 100%
inhibition at 10 µM (TNK1): 87.7%
inhibition at 10 µM (PKAC-alpha): 68.9%

CN1CCN(c2ccc(Nc3nccc(-c4cnn5ncccc45)n3)cc2C#N)CC1 [Compound 1]
inhibition at 10 µM (PDGFRα; [1]): 100%
inhibition at 10 µM (Aurora kinase A; [5]): > 90%
inhibition at 10 µM (Aurora kinase A; [2]): 96.7%
inhibition at 10 µM (FLT1): 99.9%
inhibition at 10 µM (FLT3; [3]): 100%
inhibition at 10 µM (PDGFRβ; [4]): 100%
inhibition at 10 µM (TNK1): 87.1%
inhibition at 10 µM (PKAC-alpha): 0%

Clc1ccc(Nc2ncc(-c3ccccc3)s2)cc1 [Compound 10]
inhibition at 10 µM (PDGFRα; [6]): > 90%
inhibition at 10 µM (PDGFRα; [1]): 98.9%
inhibition at 10 µM (Aurora kinase A; [2]): 0%
inhibition at 10 µM (FLT1): 0%
inhibition of FLT1, in words (FLT1; kinome profiling, 10 μM): relatively weak inhibition
inhibition at 10 µM (FLT3; [7]): > 90%
inhibition at 10 µM (FLT3; [3]): 97.1%
inhibition at 10 µM (PDGFRβ; 10 μM, n = 1, read-out: percent inhibition PDGFRβ): > 99%
inhibition at 10 µM (PDGFRβ; [4]): 99.9%
inhibition at 10 µM (TNK1): 0%
inhibition at 10 µM (PKAC-alpha): 0%

Nc1ncc2c(-c3ccncc3)c[nH]c2n1 [Compound 11]
inhibition at 10 µM (PDGFRα; [6]): ≥ 99%
inhibition at 10 µM (PDGFRα; [1]): 100%
inhibition at 10 µM (Aurora kinase A; [2]): 0%
inhibition at 10 µM (FLT1): 0%
inhibition at 10 µM (FLT3; [3]): 94.5%
inhibition at 10 µM (PDGFRβ; [4]): 93.2%
inhibition at 10 µM (TNK1): 0%
inhibition at 10 µM (PKAC-alpha): 0%

Fc1cccc(COc2ccc(Nc3ncnc4c3CN(CCN3CCOCC3)CC4)cc2Cl)c1 [Compound 6]
inhibition at 10 µM (PDGFRα; [1]): 0%
inhibition at 10 µM (Aurora kinase A; [2]): 0%
inhibition at 10 µM (FLT1): 0%
inhibition at 10 µM (FLT3; [3]): 0%
inhibition at 10 µM (PDGFRβ; [4]): 0%
inhibition at 10 µM (TNK1): 0%
inhibition at 10 µM (PKAC-alpha): 0%

COc1ccc(Nc2nccc(-c3cnn4ncccc34)n2)cc1 [Compound 2]
inhibition at 10 µM (PDGFRα; [1]): 99.9%
inhibition at 10 µM (Aurora kinase A; [5]): > 90%
inhibition at 10 µM (Aurora kinase A; [2]): 91.1%
inhibition at 10 µM (FLT1): 99.5%
inhibition at 10 µM (FLT3; [3]): 99.3%
inhibition at 10 µM (PDGFRβ; [4]): 100%
inhibition at 10 µM (TNK1): 90.2%
inhibition at 10 µM (PKAC-alpha): 0%

C[C@@H](Oc1cc(-c2cnc3ccccn23)sc1C(N)=O)c1ccccc1Cl [Compound 8]
inhibition at 10 µM (PDGFRα; [1]): 0%
inhibition at 10 µM (Aurora kinase A; [2]): 0%
inhibition at 10 µM (FLT1): 70%
inhibition at 10 µM (FLT3; [3]): 98.6%
inhibition at 10 µM (PDGFRβ; [4]): 0%
inhibition at 10 µM (TNK1): 0%
inhibition at 10 µM (PKAC-alpha): 0%

COc1cc(Nc2nccc(-c3sc(N)nc3-c3cccc(NC(=O)c4c(F)cccc4F)c3)n2)cc(OC)c1OC [Compound 7]
inhibition at 10 µM (PDGFRα; [1]): 100%
inhibition at 10 µM (Aurora kinase A; [2]): 99.5%
inhibition at 10 µM (FLT1): 99.2%
inhibition at 10 µM (FLT3; [3]): 99.8%
inhibition at 10 µM (PDGFRβ; [4]): 100%
inhibition at 10 µM (TNK1): 100%
inhibition at 10 µM (PKAC-alpha): 0%

c1ccc(COc2cccc(-c3ccnc4[nH]ccc34)c2)cc1 [Compound 9]
inhibition at 10 µM (PDGFRα; [1]): 0%
inhibition at 10 µM (Aurora kinase A; [2]): 0%
inhibition at 10 µM (FLT1): 0%
inhibition at 10 µM (FLT3; [7]): ≥ 90%
inhibition at 10 µM (FLT3; [3]): 91.1%
inhibition at 10 µM (PDGFRβ; [4]): 0%
inhibition at 10 µM (TNK1): 0%
inhibition at 10 µM (PKAC-alpha): 0%

Reference: PMC9927415, “Tyrosine Kinase Inhibitors Display Potent Activity against Cryptosporidium parvum” (Microbiology Spectrum, 2022)
